{"source": "patent US5795899A", "about": "“Soluble salts of 4-amino-2-(4,4-dimethylimidazolidin-2-on-1-yl) pyrimidine-5-carboxylic acid N-methyl-N-(3-trifluoromethylphenyl)-amide, a process for the preparation thereof, the use thereof as pharmaceuticals and starting materials” (Hoechst Aktiengesellschaft, priority 1992, dated 1998)", "key": {"[1]": {"test_system": "LDL receptor mRNA", "experiment": "LDL receptor mRNA expression in vivo in rat livers (Northern blot)", "details": "6 hours after single oral dose of 30 mg/kg, FIG. 1", "method": "Liver tissue was removed at the stated time after a single oral dose of 30 mg/kg of the hydrochloride of compound I and was shock-frozen in liquid nitrogen.\nThe Northern blot technique was used to determine the relative LDL receptor MRNA levels. The LDL receptor MRNA level is increased about 2.5-fold after six hours.\nThe mRNA was prepared by the method described by Chomczynski, P. and Sacchi, N. in Anal. Biochem. 162, 156 (1987). In the case of organs (such as, for example, liver), the deep-frozen tissue was previously homogenized in a mortar on dry ice, and the mRNA was further concentrated by means of oligo dT by standard methods (compare Sambrook, J., Fritsch, E. F. and Maniatis, T., Molecular Cloning, second edition, Cold Spring Harbor (1989); this collection of methods also includes descriptions of all the other relevant standard processes of molecular biology used here). […] The filters were subsequently exposed on Cronex 4 films (Dupont) in the presence of an intensifying screen at -70° C. overnight or for up to 14 days, and the hybridization signals were quantified from the intensity of blackening of the film using a commercially available laser densitometer. Subsequently, the quotient was determined from the intensity of the LDL receptor band and of the actin band as internal standard to correct for variations in yield. […]"}, "[2]": {"test_system": "LDL receptor mRNA in human hepatocytoma cell line HepG2", "experiment": "LDL receptor mRNA expression on HepG2 cells (Northern blot)", "assay_type": "cell-based", "details": "FIG. 2", "method": "The HepG2 cells were previously incubated in MEM standard medium which contained 10% fetal calf serum with and without hydrochloride of the compound I (10^-6 M) for 16 hours.\nLipoprotein-deficient serum (LPDS) was in this case prepared by ultracentrifugation by a standard process (Goldstein, J. L., Basu, S. K and Brown, M. S., Methods Enzymol. 98, 241 (1983)). The MRNA in the […] was prepared in analogy to the method described above.\nThe mRNA was prepared by the method described by Chomczynski, P. and Sacchi, N. in Anal. Biochem. 162, 156 (1987). […] The filters were subsequently exposed on Cronex 4 films (Dupont) in the presence of an intensifying screen at -70° C. overnight or for up to 14 days, and the hybridization signals were quantified from the intensity of blackening of the film using a commercially available laser densitometer. Subsequently, the quotient was determined from the intensity of the LDL receptor band and of the actin band as internal standard to correct for variations in yield. […]"}, "[3]": {"test_system": "LDL receptor", "experiment": "Uptake of 125I-labeled homologous LDL / functional LDL receptor levels on HepG2 cells", "assay_type": "cell-based, human", "details": "FIG. 3", "method": "In this test, homologous LDL which had been purified by standard processes was labeled with ^125 I by the iodine monochloride method. Used in this case was the method of Bilheimer which is disclosed in the literature and is a modification of the iodination technique originally developed by McFarlaine (compare Bilheimer, D. W., Eisenberg, S., and Levy, R. L., Biochim. Biophys. Acta, 260, 212 (1972)).\nTo determine the ^125 I-LDL incorporation, HepG2 cells were preincubated with and without hydrochloride of the compound I for 36 hours and subsequently incubated with iodine-labeled LDL at 37° C. in an incubator for 3 hours.\nSubsequently, the cells were washed in the presence of 2% bovine serum albumin, the cells were lyzed with 1 ml of 0.1N NaOH, and the incorporated radioactivity was measured. The specific radioactivity uptake (total radioactivity uptake less the unspecific radioactivity uptake) per mg of protein was then calculated, as generally customary, via a protein determination by the Lowry method, and the radioactivity taken up by the control […] was set equal to 100%."}, "[4]": {"test_system": "carbohydrate-induced hypertriglyceridemia", "experiment": "Inhibition of carbohydrate-induced hypertriglyceridemia", "assay_type": "in vivo, male Sprague-Dawley rats", "details": "1 mg/kg/day", "method": "Groups of in each case 10 male Sprague-Dawley rats (supplied by the breeder Mollegard with a weight of 250-280 g) received on each of 4 consecutive days one administration of the compound dissolved in PEG 400 by gavage. In addition, after the 3rd administration and 8 and 24 hours later they received 2.5 g of fructose/kg, likewise by gavage. Moreover, after the 3rd administration of product, 50% strength fructose solution was offered to them as drinking water ad libitum, and the food was withdrawn. Retroorbital removal of blood, from which the serum was obtained for the triglyceride determination and VLDL preparation in the ultracentrifuge (flotation at d=1.006), took place 3 hours after the last product/fructose administration. The food received by the animals from 1 week before the 1st administration and up to the 3rd administration was a diet with 40% casein in the feed meal.\nThe animals develop, as a result of this treatment, a hypertriglyceridemia which approximately corresponds to Fredrickson phenotype IV in humans. The serum triglycerides of the normal animals increased from 0.54 to 1.1 mmol/l, and the VLDL triglycerides from 0.67 to 1.81."}, "[5]": {"test_system": "mouse leukemia cells, L 1210", "experiment": "MTT assay, inhibition of cell proliferation, L1210", "assay_type": "cell-based", "details": "72 hours incubation", "method": "(§1) The reduced inhibitory effect on cell proliferation was tested on exponentially growing animal (mouse leukemia cells, L 1210) and human (bronchial carcinoma cells, A 549; colon carcinoma cells, HT 29) tumor cells. This entailed the tumor cells being incubated in RPMI standard medium with various concentrations of the test substances for 72 hours. Cell incubations only in fresh medium served as control. Incubations were set up in quadruplet. […] After incubation for a further 7 to 24 hours, the cell supernatant was carefully removed and the formazan dye in the cells was solubilized by adding DMSO and measured quantitatively by photometry at 492 nm. The ratio of the extinction of the substance incubations to the control incubation was quantified. The coefficient of variation in each incubation series was less than 15%. The following Table 6 indicates the IC50 values (IC50 [μg/ml] is the concentration of the test substance per ml which is necessary for 50% inhibition) from these investigations."}, "[6]": {"test_system": "tumor cells (L 1210, A 549, HT 29)", "experiment": "Cell proliferation inhibition (MTT assay), overall statement", "assay_type": "cell-based, mouse and human", "method": "as §1"}, "[7]": {"experiment": "physchem", "details": "water"}}}
{"smiles": "CN(C(=O)c1cnc(N2CC(C)(C)NC2=O)nc1N)c1cccc(C(F)(F)F)c1.Cl", "note": "[Compound I as hydrochloride, 4-amino-2-(4,4-dimethyl-2-oxo-1-imidazolidinyl)pyrimidine-5-carboxylic acid N-methyl-N-(3-trifluoromethylphenyl)amide hydrochloride]", "values": [{"measurement": "Increase in LDL receptor mRNA level in rat liver", "setting": "[1]", "result": "about 2.5 -fold"}, {"measurement": "Overinduction of LDL receptor mRNA in lipoprotein-deficient serum compared with whole serum", "setting": "[2]; 10^-6 M, 16 hours", "result": "further by the same factor as was observed on stimulation in whole serum"}, {"measurement": "Dependence of LDL receptor mRNA stimulation on cholesterol supply level", "setting": "[2]; whole serum and lipoprotein-deficient serum", "result": "does not depend on the cholesterol \"supply level\""}, {"measurement": "Functional LDL receptor levels on HepG2 cells", "setting": "[3]", "result": "corresponding increase"}, {"measurement": "Increase in uptake of 125I-labeled homologous LDL", "setting": "[3]; HepG2, preincubation 36 hours, then 125I-LDL at 37° C. 3 hours", "result": "increased by up to two and a half times"}, {"measurement": "Inhibition of the increase in the VLDL triglycerides (in words)", "setting": "[4]", "result": "almost one half"}, {"measurement": "IC50", "setting": "[5]", "result": 13.4, "unit": "µg/mL"}, {"measurement": "Proliferation inhibition compared with imanixil (HOE 402) / its hydrochloride (in words)", "setting": "[6]", "result": "must be given at a considerably higher dose in order to have the same proliferation-inhibiting effect"}, {"measurement": "Solubility in water (in words)", "result": "good solubility"}, {"measurement": "1 part by mass dissolves in . . . parts of H2 O", "setting": "Table 2, Temp. [°C]: hydrochloride 25.0, nitrate 23.5, p-toluenesulfonate 23.2, hydrogen (R,R)-tartrate 24.6, free base 24.8", "result": "1.33 parts of H2 O"}, {"measurement": "solubility", "setting": "[7]", "result": 430, "unit": "mg/mL"}]}
